Activity calls are given as the source filed them. The rule behind the calls is not given here. Bounds are passed on as bounds.

One data set has as its system Peritoneal macrophage. Description: Cytotoxicity against BALB/c mouse peritoneal macrophage assessed as cell proliferation at 20 ug for 48 hrs by MTT assay. Format: toxicity, cell-based. As to conditions: dose 20 µg. (Tetrazolium assays rely on reduction of a dye to a coloured formazan, in cell work by metabolically active cells.)
The target in data set [1] is Nucleotide-binding oligomerization domain-containing protein 2 (Homo sapiens) (UniProt Q9HC29). As to the kind of experiment: Binding affinity to NOD2 in HEK-Blue hNOD2 cells by measuring secreted alkaline phosphatase into culture supernatant at 20 ug measured after 24 hrs by HEK-Blue detection method. As to conditions: filed as agonist, dose 20.0 µg. Format: cell-based.

Data set [2] can be described thus: Induction of mouse spleen dendritic cells activation at 20 ug for 24 hrs relative to control. It is filed as functional, Dendritic cell. The settings on record: dose 20 µg.
Data set [3] can be described thus: Induction of BALB/c mouse peritoneal macrophage activation by measuring TNF-alpha level at 20 ug for 48 hrs by ELISA analysis. Format: functional. The settings on record: dose 20 µg. (In an ELISA, binding on a coated surface is turned into a signal by an enzyme label.)
Data set [4] has as its system Serum. As to the kind of experiment: Induction of antibody titer production in immunized BALB/c mouse serum assessed as fold increase in IgG1 antibody titer at 20 ug for 28 days. It is filed as functional. The settings on record: dose 20 µg; time 28 day.
Data set [5] relates to Serum. As to the kind of experiment: Induction of antibody titer production in immunized BALB/c mouse serum assessed as fold increase in IgG1 antibody titer at 30 ug for 28 days. It is filed as functional. As to conditions: dose 30 µg; time 28 day.
The test system of data set [6] is Serum. Description: Induction of antibody titer production in immunized BALB/c mouse serum assessed as increase in IgG2a antibody titer at 10 to 30 ug for 28 days. As to conditions: dose 10-30 µg, time 28.0 day. Format: functional, cell-free.
The subject of data set [7] is Serum. Description: Induction of antibody titer production in immunized BALB/c mouse serum assessed as increase in IgG1 antibody titer at 10 to 30 ug for 28 days. It is filed as functional, cell-free. As to conditions: dose 10-30 µg, time 28.0 day.
Data set [8] deals with CD4+ve Th. As to the kind of experiment: Stimulation of CD4+ T helper cells in mouse spleen for 15 mins by auto- fluorescence based analysis. Format: functional, cell-based.
The test system of data set [9] is CD8-positive T cell. Description: Stimulation of […] in mouse spleen for 15 mins by auto- fluorescence based analysis. It is filed as functional, tissue-based. The settings on record: dose 10-30 µg.
Data set [10] deals with Splenocyte. Description: Cytotoxicity against mouse splenocyte incubated at 10 to 30 ug for 3 hrs in by MTT assay. It is filed as toxicity, cell-based. The settings on record: dose 10-30 µg.
Data set [11] relates to Serum. As to the kind of experiment: Induction of antibody titer production in immunized BALB/c mouse serum assessed as increase in IgG2a antibody titer at 20 ug for 28 days. Format: functional, cell-free. As to conditions: dose 20.0 µg, time 28.0 day.
The subject of data set [12] is Serum. As to the kind of experiment: Induction of antibody titer production in immunized BALB/c mouse serum assessed as increase in IgG1 antibody titer at 20 ug for 28 days. It is filed as functional, cell-free. The settings on record: dose 20.0 µg, time 28.0 day.
Data set [13] relates to CD4+ve Th. Description: Stimulation of CD4+ T helper cells in mouse spleen at 20 ug for 15 mins by auto- fluorescence based analysis. Format: functional, cell-based. The settings on record: dose 20.0 µg.
The subject of data set [14] is CD8-positive T cell. As to the kind of experiment: Stimulation of […] in mouse spleen at 20 ug for 15 mins by auto- fluorescence based analysis. It is filed as functional, tissue-based. As to conditions: dose 20.0 µg.
Data set [15] has as its system Splenocyte. Description: Upregulation of IL-1beta in Dengue virus recombinant antigen restimulated mouse splenocyte incubated at 30 ug for 48 hrs by ELISA anlaysis. Format: functional, cell-based. The settings on record: dose 10-30 µg.
For data set [16], the system named is Splenocyte. As to the kind of experiment: Upregulation of IL-1beta in Dengue virus recombinant antigen restimulated mouse splenocyte incubated at 20 ug for 48 hrs by ELISA anlaysis. The settings on record: dose 20.0 µg. It is filed as functional, cell-based.
Data set [17] in a line: Cytotoxicity against BALB/c mouse peritoneal macrophage assessed as cell proliferation at 20 ug for 48 hrs by MTT assay relative to control. Format: toxicity, cell-based. The settings on record: peritoneal macrophages, at 20 µg, read-out: Activity.

Sequence of Nucleotide-binding oligomerization domain-containing protein 2 (Homo sapiens) (Q9HC29 whole entry, the tested form may be a part): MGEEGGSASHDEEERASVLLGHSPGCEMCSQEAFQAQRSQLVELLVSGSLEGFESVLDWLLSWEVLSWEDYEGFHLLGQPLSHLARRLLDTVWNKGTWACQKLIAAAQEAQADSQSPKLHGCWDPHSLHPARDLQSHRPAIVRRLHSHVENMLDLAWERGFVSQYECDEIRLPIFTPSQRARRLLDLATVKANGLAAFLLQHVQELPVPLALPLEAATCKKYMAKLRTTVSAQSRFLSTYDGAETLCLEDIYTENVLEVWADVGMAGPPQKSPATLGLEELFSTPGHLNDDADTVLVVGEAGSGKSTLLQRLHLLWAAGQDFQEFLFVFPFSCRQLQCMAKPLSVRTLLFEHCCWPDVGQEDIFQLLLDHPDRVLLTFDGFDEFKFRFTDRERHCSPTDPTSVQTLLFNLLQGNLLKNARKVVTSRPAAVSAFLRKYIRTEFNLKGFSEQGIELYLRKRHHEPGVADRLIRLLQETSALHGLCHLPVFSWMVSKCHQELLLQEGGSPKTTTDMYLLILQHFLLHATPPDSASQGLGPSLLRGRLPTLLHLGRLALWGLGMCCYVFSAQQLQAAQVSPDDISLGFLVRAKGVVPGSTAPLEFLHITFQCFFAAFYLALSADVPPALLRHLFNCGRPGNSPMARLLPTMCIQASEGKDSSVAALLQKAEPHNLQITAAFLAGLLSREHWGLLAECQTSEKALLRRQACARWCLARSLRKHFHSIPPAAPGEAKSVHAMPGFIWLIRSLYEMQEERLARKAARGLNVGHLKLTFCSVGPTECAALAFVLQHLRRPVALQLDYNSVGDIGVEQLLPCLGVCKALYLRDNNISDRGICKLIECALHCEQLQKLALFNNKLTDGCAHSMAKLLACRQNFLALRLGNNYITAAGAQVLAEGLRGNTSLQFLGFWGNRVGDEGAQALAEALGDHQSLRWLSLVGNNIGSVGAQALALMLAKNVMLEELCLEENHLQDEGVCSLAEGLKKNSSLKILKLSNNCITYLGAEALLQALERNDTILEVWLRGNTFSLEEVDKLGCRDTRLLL

As to `CCCCCCCCCCCCCCCCCCn1nnc([C@@H](CCC(=O)O)NC(=O)[C@H](C)NC(=O)[C@@H](C)O[C@H]2[C@H](O)[C@@H](CO)O[C@H](O)[C@@H]2NC(C)=O)n1`, the Activity entry with Peritoneal macrophage is “Non-Toxic”; in [2], 13%; in data set [3], “<=100 pg/ml”. For the same molecule, in [1], the result was Active.
The matching figures for `CC(=O)N[C@@H]1[C@@H](O[C@H](C)C(=O)N[C@@H](C)C(=O)N[C@H](CCC(=O)O)c2nnn(C3CCCCCC3)n2)[C@H](O)[C@@H](CO)O[C@@H]1O`: “Non-Toxic”, 13%, 250 pg/mL and “Active”.
For the molecule `CCCCn1nnc([C@@H](CCC(=O)O)NC(=O)[C@H](C)NC(=O)[C@@H](C)O[C@H]2[C@H](O)[C@@H](CO)O[C@H](O)[C@@H]2NC(C)=O)n1`, the Activity result in the data set with Peritoneal macrophage was “Non-Toxic”; in data set [2], 13%; in data set [3] it was “<=100 pg/ml”; in the data set with CD4+ve Th [8] it was “Dose-Dependent Effect”; in the data set with CD8-positive T cell [9], “Dose-Dependent Effect”; in the data set on Splenocyte [10] it was “Non-Toxic”. The outcome (in [1]; with Serum [6]; in the data set on Serum [7]) was Active. In addition, the results for the “fold change (FC)” value in the data set on Serum [4] and with Serum [5] were 8 and 11, respectively.
`CC(=O)N[C@@H]1[C@@H](O[C@H](C)C(=O)N[C@@H](C)C(=O)N[C@H](CCC(=O)O)c2nn[nH]n2)[C@H](O)[C@@H](CO)O[C@@H]1O`: the Activity entry was “Non-Toxic” in the data set on Peritoneal macrophage, 13% in [2] and 250 pg/mL in [3]. For the same molecule, the result in [1] was Active.
Turning to `CC(=O)N[C@H]1[C@@H](OCc2ccccc2)O[C@@H]2CO[C@@H](c3ccccc3)O[C@H]2[C@@H]1O[C@H](C)C(=O)N[C@@H](C)C(=O)N[C@H](CCC(=O)OCc1ccccc1)C(N)=O`, the Activity entry is given as “Non-Toxic” in the data set on Peritoneal macrophage, 13% in data set [2] and “Toxic” in the data set on Splenocyte [10]. In addition, the outcome (in data set [1]; with Serum [11]; in the data set with Serum [12]) was Active. In addition, the “fold change (FC)” value in the data set with Serum [4] was 7.
Turning to `CCCCCCCCn1nnc([C@@H](CCC(=O)O)NC(=O)[C@H](C)NC(=O)[C@@H](C)O[C@H]2[C@H](O)[C@@H](CO)O[C@H](O)[C@@H]2NC(C)=O)n1`, the Activity entry is reported as “Non-Toxic” in the data set on Peritoneal macrophage, 13% in data set [2], “<=100 pg/ml” in data set [3] and “Non-Toxic” in the data set with Splenocyte [10]. Also, the outcome (in data set [1]; in the data set with Serum [6]; in the data set with Serum [7]; with Splenocyte [15]; in the data set on Splenocyte [16]) was Active. Besides, the “fold change (FC)” value in the data set on Serum [4] is 11. In addition, the outcome with CD4+ve Th [13] and in the data set with CD8-positive T cell [14] was inactive.
As to `CCCCCCCCCCCCn1nnc([C@@H](CCC(=O)O)NC(=O)[C@H](C)NC(=O)[C@@H](C)O[C@H]2[C@H](O)[C@@H](CO)O[C@H](O)[C@@H]2NC(C)=O)n1`, the viability at 48 h, 20 ug in data set [17] was below 140%. The Activity result with Peritoneal macrophage is “Non-Toxic”; in data set [2] it was 13%; in [3], 250 pg/mL. For the same molecule, in [1], the outcome was Active.

Values taken from ChEMBL document CHEMBL5352502, “Design, synthesis and biological evaluation of novel lipophilic 2, 5-disubstituted tetrazole analogues of muramyl dipeptide as NOD2 agonists” (Bioorg Med Chem, 2023).
